These results are taken from patent US20230055705A1, “SUBSTITUTED THIOPHENE CARBOXAMIDES AND DERIVATIVES THEREOF” (Bayer Aktiengesellschaft, priority 2019, published 2023).

Structures are written as SMILES.

The nature of one series: LogP by HPLC on reversed phase columns (EEC directive 79/831 Annex V.A8). In kind it is physicochemical.
Conditions: not given
The method, then: In the above tables, measurement of LogP values was performed according to EEC directive 79/831 Annex V.A8 by HPLC (High Performance Liquid Chromatography) on reversed phase columns with the following methods: • ^[a]
Calibration was done with straight-chain alkan2-ones (with 3 to 16 carbon atoms) with known LogP values (measurement of LogP values using retention times with linear interpolation between successive alkanones). Lambda-max-values were determined using UV-spectra from 200 nm to 400 nm and the peak values of the chromatographic signals.
For `O=C(NC1CCNC1=O)c1sc(Cl)c(Cl)c1Cl` (stereo not drawn) [I.004], the LogP is 1.98^[a].

Turning to `COC(=O)C(C1CC1)N(O)C(=O)c1sc(Cl)c(Cl)c1Cl` (stereo not drawn) [I.021], the LogP was 3.00^[a].

Consider `NC(=O)CCC(NC(=O)c1sc(Cl)c(Cl)c1Cl)C(=O)O` (stereo not drawn) [I.002], for which the LogP is 1.73^[a].

Take `CN(CC#N)C(=O)C1(NC(=O)c2sc(Cl)c(Cl)c2Cl)CC1` [I.052]: the LogP is 2.44^[a].

Regarding `O=C(NC1CCCNC1=O)c1sc(Cl)c(Cl)c1Cl` (stereo not drawn) [I.031], the LogP is 2.20^[a].

On to `O=C1CC(NC(=O)c2sc(Cl)c(Cl)c2Cl)CN1` (stereo not drawn) [I.028], for which the LogP was 1.86^[a].

With `COC(=O)[C@H](CC(=O)O)NC(=O)c1sc(Cl)c(Cl)c1Cl` [I.081], the LogP is 2.46^[a].

With `O=C(N[C@H]1CCSC1=O)c1sc(Cl)c(Cl)c1Cl` [I.043], the LogP was 3.24^[a].

Turning to `N#CNC(=O)C1(NC(=O)c2sc(Cl)c(Cl)c2Cl)CC1` [I.107], the LogP is 2.57^[a].

On to `CCOC(=O)C1(NC(=O)c2sc(Cl)c(Cl)c2Cl)CSC1` [I.085], for which the LogP is 3.92^[a].

As to `O=C(N[C@H]1CCCNC1=O)c1sc(Cl)c(Cl)c1Cl` [I.126], the LogP is 2.24^[a].

Turning to `NC(=O)C1(NC(=O)c2sc(Cl)c(Cl)c2Cl)CC1` [I.060], the LogP is 2.00^[a].

Consider `COC(=O)[C@H](CCC(N)=O)NC(=O)c1sc(Cl)c(Cl)c1Cl` [I.082], for which the LogP is 2.19^[a].

Regarding `O=C(NC1(C(=O)OC2CCC2)CCC1)c1sc(Cl)c(Cl)c1Cl` [I.102], the LogP is 4.93^[a].

For the molecule `CCOC(=O)C(CCSC)NC(=O)c1sc(Cl)c(Cl)c1Cl` (stereo not drawn) [I.084], the LogP was 4.47^[a].

In the case of `O=C(CNC(=O)c1sc(Cl)c(Cl)c1Cl)SCc1ccccc1` [I.041], the LogP is 4.56^[a].

Turning to `CSCCC(NC(=O)c1sc(Cl)c(Cl)c1Cl)C(=O)O` (stereo not drawn) [I.051], the LogP is 3.01^[a].

Consider `CCOC(=O)C(NC(=O)c1sc(Cl)c(Cl)c1Cl)C(F)(F)F` (stereo not drawn) [I.123], for which the LogP was 4.47^[a].

Turning to `CCSC(=O)C(NC(=O)c1sc(Cl)c(Cl)c1Cl)C(C)C` (stereo not drawn) [I.090], the LogP was 5.45^[a].

For `O=C1CC(NC(=O)c2sc(Cl)c(Cl)c2Cl)CCN1` (stereo not drawn) [I.030], the LogP was 1.93^[a].

Take `CC(C)C(C#N)NC(=O)c1sc(Cl)c(Cl)c1Cl` (stereo not drawn) [I.130]: the LogP was 3.81^[a].

Consider `COC(=O)C(C)(Cc1ccccc1)NC(=O)c1sc(Cl)c(Cl)c1Cl` (stereo not drawn) [I.122], for which the LogP is 5.11^[a].

In the case of `CN(CC#N)C(=O)CNC(=O)c1sc(Cl)c(Cl)c1Cl` [I.063], the LogP is 2.62^[a].

On to `CCSC(=O)C(CC(C)C)NC(=O)c1sc(Cl)c(Cl)c1Cl` (stereo not drawn) [I.039], for which the LogP is 5.54^[a].

With `O=C(NC1CCOC1=O)c1sc(Cl)c(Cl)c1Cl` (stereo not drawn) [I.029], the LogP was 2.48^[a].

Take `COC(=O)C(NC(=O)c1sc(Cl)c(Cl)c1Cl)(C1CC1)C1CC1` [I.005]: the LogP was 4.51^[a].

As to `N#CNC(=O)CNC(=O)c1sc(Cl)c(Cl)c1Cl` [I.106], the LogP was 2.45^[a].

Regarding `CCCOC(=O)C1(NC(=O)c2sc(Cl)c(Cl)c2Cl)CCC1` [I.101], the LogP is 4.74^[a].

With `COC(=O)C(NC(=S)c1sc(Cl)c(Cl)c1Cl)C(C)C` (stereo not drawn) [I.093], the LogP is 5.61^[a].

Turning to `CNC(=S)CNC(=O)c1sc(Cl)c(Cl)c1Cl` [I.128], the LogP was 2.89^[a].

Consider `CC(C)OC(=O)C1(C2(NC(=O)c3sc(Cl)c(Cl)c3Cl)CC2)CC1` [I.027], for which the LogP was 5.35^[a].

`CCOC(=O)C1(C2(NC(=O)c3sc(Cl)c(Cl)c3Cl)CC2)CC1` [I.047]: the LogP is 4.83^[a].

For `CCOC(=O)C(NC(=O)c1sc(Cl)c(Cl)c1Cl)OC` (stereo not drawn) [I.017], the LogP was 3.57^[a].

As for `CNC(=O)CNC(=O)c1sc(Cl)c(Cl)c1Cl` [I.073], the LogP was 2.07^[a].

Take `CC(C)(C)OC(=O)C1(NC(=O)c2sc(Cl)c(Cl)c2Cl)CC(F)(F)C1` [I.086]: the LogP is 4.81^[a].

With `CCNC(=O)[C@@H](NC(=O)c1sc(Cl)c(Cl)c1Cl)C(C)C` [I.094], the LogP was 3.43^[a].

Turning to `CCOC(=O)C1(NC(=O)c2sc(Cl)c(Cl)c2Cl)CCOCC1` [I.077], the LogP was 3.39^[a].

Consider `COC(=O)C(CCSC(C)=O)NC(=O)c1sc(Cl)c(Cl)c1Cl` (stereo not drawn) [I.127], for which the LogP is 3.94^[a].

Consider `O=C(NC1(C(=O)OC2CCCCC2)CCC1)c1sc(Cl)c(Cl)c1Cl` [I.103], for which the LogP is 5.84^[a].

On to `N#CCNC(=O)CNC(=O)c1sc(Cl)c(Cl)c1Cl` [I.062], for which the LogP is 2.21^[a].

As to `O=C(NC1(C(=O)NO)CC1)c1sc(Cl)c(Cl)c1Cl` [I.050], the LogP was 1.91^[a].

For the molecule `N#CC1(NC(=O)c2sc(Cl)c(Cl)c2Cl)CCC(c2ccccc2)CC1` (stereo not drawn) [I.131], the LogP is 5.00^[a].

As for `COC(=O)C1(NC(=O)c2sc(Cl)c(Cl)c2Cl)CCC1` [I.112], the LogP is 3.69^[a].

On to `CCOC(=O)C(NC(=O)c1sc(Cl)c(Cl)c1Cl)C(=O)OCC` [I.006], for which the LogP was 4.19^[a].

Regarding `NC(=O)CC(NC(=O)c1sc(Cl)c(Cl)c1Cl)C(=O)O` (stereo not drawn) [I.001], the LogP was 1.81^[a].

In the case of `N#CC1(NC(=O)c2sc(Cl)c(Cl)c2Cl)CCC(C2CCCCC2)CC1` (stereo not drawn) [I.134], the LogP was 6.41^[a].

For `O=C(CNC(=O)c1sc(Cl)c(Cl)c1Cl)Sc1ccccc1` [I.042], the LogP was 4.27^[a].

Turning to `COC(=O)C1(NC(=O)c2sc(Cl)c(Cl)c2Cl)CC(C)(C)C1` [I.087], the LogP is 4.48^[a].

Turning to `CCCCOC(=O)C1(NC(=O)c2sc(Cl)c(Cl)c2Cl)CCC1` [I.099], the LogP is 5.20^[a].

Turning to `O=C(NC(Cc1c[nH]c2ccccc12)C(=O)O)c1sc(Cl)c(Cl)c1Cl` (stereo not drawn) [I.003], the LogP is 3.31^[a].

Take `COC(=O)[C@H](CCC(=O)O)NC(=O)c1sc(Cl)c(Cl)c1Cl` [I.075]: the LogP was 2.57^[a].

Turning to `COC(=O)[C@@H](CC(N)=O)NC(=O)c1sc(Cl)c(Cl)c1Cl` [I.014], the LogP is 2.11^[a].

Take `CCOC(=O)C(NC(=S)c1sc(Cl)c(Cl)c1Cl)C(C)C` (stereo not drawn) [I.092]: the LogP is 6.17^[a].

Take `O=C(NC1(C(=O)OCc2ccccc2)CCC1)c1sc(Cl)c(Cl)c1Cl` [I.100]: the LogP is 5.00^[a].

Consider `CCOC(=O)C1(NC(=O)c2sc(Cl)c(Cl)c2Cl)CN(C(=O)OC(C)(C)C)C1` [I.057], for which the LogP is 4.47^[a].

As for `CCOC(=O)CCNC(=O)c1sc(Cl)c(Cl)c1Cl` [I.026], the LogP is 3.46^[a].

Staying with this series, now noted: reversed phase HPLC columns, given in the preparation examples; method not marked.
As to `O=C(NC1(C(=O)O)CC1)c1sc(Cl)c(Cl)c1Cl` [1-{[(3,4,5-trichloro-2-thienyl)carbonyl]amino}cyclopropanecarboxylic acid], the chromatographic logP (commonly lipophilicity estimated from chromatographic retention) was determined as 2.39.
